According to paper PMC6398150 (Journal of Medicinal Chemistry, 2019):

Experiments:
Assay type in all cases: biochemical
[1] = biological target: T1, group V secreted PLA2 (sPLA2) (Homo sapiens, UniProt P39877); test: Lipidomics LC-MS mixed micelle PLA2 assay, sPLA2
T1 sequence (P39877 21-138): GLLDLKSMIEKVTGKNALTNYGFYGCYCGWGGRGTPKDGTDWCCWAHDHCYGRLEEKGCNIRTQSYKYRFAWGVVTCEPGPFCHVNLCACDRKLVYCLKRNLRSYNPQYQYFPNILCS

[2] = biological target: T1, group V secreted PLA2 (sPLA2); test: Traditional radioactive assay
[3] = biological target: group VIA calcium-independent (iPLA2) (Homo sapiens, UniProt O60733); test: Lipidomics LC-MS mixed micelle PLA2 assay, iPLA2; conditions: for IC50: IC50, single phospholipid PAPC
Sequence of group VIA calcium-independent (iPLA2) (O60733 whole entry): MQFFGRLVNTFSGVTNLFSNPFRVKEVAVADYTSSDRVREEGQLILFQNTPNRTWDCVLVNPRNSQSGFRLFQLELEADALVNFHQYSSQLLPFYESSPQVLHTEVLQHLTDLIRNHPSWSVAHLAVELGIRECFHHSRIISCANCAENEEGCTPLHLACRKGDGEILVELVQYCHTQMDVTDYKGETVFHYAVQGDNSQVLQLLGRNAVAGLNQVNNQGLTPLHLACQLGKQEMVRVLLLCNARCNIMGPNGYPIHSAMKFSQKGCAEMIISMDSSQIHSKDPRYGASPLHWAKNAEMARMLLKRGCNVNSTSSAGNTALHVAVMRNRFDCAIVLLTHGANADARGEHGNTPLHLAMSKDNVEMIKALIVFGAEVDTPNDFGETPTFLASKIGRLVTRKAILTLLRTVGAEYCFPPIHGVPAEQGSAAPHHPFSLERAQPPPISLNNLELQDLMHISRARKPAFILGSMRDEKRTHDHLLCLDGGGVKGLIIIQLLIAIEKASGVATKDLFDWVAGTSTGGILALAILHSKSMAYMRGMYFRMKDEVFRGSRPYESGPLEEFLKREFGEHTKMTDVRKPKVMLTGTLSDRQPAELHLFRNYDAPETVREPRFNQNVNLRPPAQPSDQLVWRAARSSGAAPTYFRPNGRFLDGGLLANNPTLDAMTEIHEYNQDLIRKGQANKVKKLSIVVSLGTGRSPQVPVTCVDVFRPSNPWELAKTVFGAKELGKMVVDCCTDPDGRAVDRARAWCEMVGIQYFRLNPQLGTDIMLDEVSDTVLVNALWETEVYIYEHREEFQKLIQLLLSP

| IC50 ([3]; 16:0 LPC detected, positive ion mode) | IC50 ([3]; free AA detected, negative ion mode) | greater inhibitor potency with PAPC as substrate versus PLPC ([3]; PAPC versus PLPC substrate) | Compound | IC50 ([1]; IC50, single phospholipid PAPC, 16:0 LPC detected, positive ion mode) | IC50 ([1]; IC50, single phospholipid PAPG, 16:0 LPG detected, positive ion mode) | IC50 ([1]; IC50, single phospholipid PAPG, free AA detected, negative ion mode) | XI(50) ([1]; single phospholipid PAPC, free AA detected, negative ion mode) | IC50 [2] |
| --- | --- | --- | --- | --- | --- | --- | --- | --- |
| – | – | – | CCc1c(C(=O)C(N)=O)c2c(OCC(=O)O)cccc2n1Cc1ccccc1 [Ly315920] | 0.104 µM | 18 µM | 22 µM | 0.0002 | 0.056 µM |
| 0.058 µM | 0.034 µM | approximately twofold | CCCCCCCCSCC(=O)C(F)(F)F [OTFP] | – | – | – | – | – |
